Measurements taken from article PMC11513924, “Addressing the Intracellular Vestibule of the Plasmodial Lactate Transporter PfFNT by p-Substituted Inhibitors Amplifies In Vitro Activity” (Journal of Medicinal Chemistry, 2024).

How the values were obtained:
albumin = test: Plasma protein (albumin) binding by ultracentrifugation; format: in vitro ADME; conditions: pooled human plasma; for albumin binding: 5 μM
Protocol: Clearance, half-life and plasma protein binding were assayed at TGC LifeScience, Kolkata, India, as described before.[36] Test compounds were incubated in duplicate in 96-well plates at 1 μM concentration with pooled human liver microsomes in 0.1 M phosphate buffer, pH 7.4 (0.4 mg mL^–1 final protein concentration; XenoTech, Lenexa, KS) in the presence and absence of 1 mM NADPH. Metabolism reactions were stopped by addition of 300 μL of ice-cold acetonitrile containing carbamazepine at 0.0236 μg mL^–1 as an internal standard, collection and analysis of the supernatant by LC–MS/MS (Agilent Rapid Resolution HPLC, AB SCIEX 4500 MS). The relative loss of the test compound over time was used to determine the first order rate constant for calculation of the in vitro intrinsic clearance and half-life.[37] Plasma protein binding was determined by ultracentrifugation from pooled human plasma spiked with 5 μM test compound. Aliquots were transferred immediately (total plasma concentration) or after 1 h at 37 °C (protein bound fraction) to ice-cold acetonitrile containing 0.0236 μg mL^–1 carbamazepine as an internal standard, ultracentrifuged for 4 h at 37 °C (Beckman Optima L-80XP), and analyzed by LC–MS/MS (Agilent Rapid Resolution HPLC, AB SCIEX 4500 QTRAP MS).

HepG2 cells = format: cell-based; conditions: human
Protocol: (§1) HEK293T and HepG2 cells were precultured in Dulbecco’s modified Eagle medium with 10% fetal bovine serum (FBS, Gibco, #10270106) in 96-well plates (Sarstedt, TC-treated, #83.3924) at a density of 20,000 cells per well. For ATP quantification, commercial CellTiterGlo was used according to the manufacturer’s instructions. For the resazurin assay, the culture medium was removed, and the cells were incubated in 120 μL of a 66 μM resazurin solution in PBS (SigmaAldrich, #R7017) at 37 °C for 2 h, for fluorescence read-out (λex/λem = 544/590 nm) using a microplate reader (Spark, Tecan Group). Nuclei were counted by microscopy (ImageXpress MicroXL, Molecular Devices) after fixation with 4% paraformaldehyde in PBS, and 15 min incubation at room temperature with Hoechst33342. Quantification was done using the “Cell Proliferation High-Throughput” algorithm (MetaXpress Software, Molecular Devices). All values were normalized to vehicle control (DMSO).

HEK293 cells = format: cell-based; conditions: human
Protocol: as §1

[1] = Lipophilicity log D7.4 by HPLC (OECD guideline); format: physicochemical; conditions: RP-8 HPLC column (ZORBAX Eclipse XDB-C8), pH 7.4
Protocol: Lipophilicity was determined according to the OECD Guidelines for the Testing of Chemicals no. […]. Briefly, the test compounds plus 9 standards (4-acetylpyridine, acetanilide, acetophenone, methyl benzoate, ethyl benzoate, benzophenone, phenyl benzoate, diphenyl ether, triphenylamine) were separated by HPLC with UV detection at 220 nm (Waters HPLC 1525 with tunable absorbance detector 486) using an RP-8 column (Agilent Technologies ZORBAX Eclipse XDB-C8 4.6 × 150 mm, 5 μm) at 20 °C. Eluents A (20 mM ammonium formate, pH 7.4) and B (methanol) were used to generate a gradient profile of 80% A–100% B (0–35 min), 100% B (35–37 min), 100% B–80% A (37–42 min), and 80% A (42–55 min) at a flow rate of 0.8 mL min^–1. The dead time was determined via the injection peak caused by the solvent. The log D7.4 values were calculated by correlating the capacity factors with the known values of the standards via polynomial fitting.

P. berghei = P. berghei mouse model, 4 day Peters' test; format: in vivo, Plasmodium berghei (mice)
Protocol: The animal experiments against P. berghei were carried out at the Swiss Tropical and Public Health Institute adhering to local and national regulations of laboratory animal welfare in Switzerland (awarded permission no. BL530). Protocols are regularly reviewed and revised following approval by the local authority (Amt für Lebensmittelsicherheit and Veterinärwesen Basel-Land). Female mice infected with GFP-expressing P. berghei (ANKA strain, donated by A. P. Waters and C. J. Janse, Leiden University, The Netherlands) were analyzed for in vivo efficacy of 7e and 8a as described previously.[18],[19] Parasitemia was determined using flow cytometry with a detection limit of 1 parasite in 1000 erythrocytes. Compound activity was calculated as the difference between the mean parasitemia for the control and treated groups (n = 3, each) expressed relative to the control group. 7e and 8a were suspended in 70/30 Tween 80/ethanol, diluted 10-fold with water and administered orally 4, 24, 48, and 72 h after infection. 7e was analyzed at 30, 10, and 3 mg kg^–1, 8a at 50, and 10 mg kg^–1. In vivo efficacy against P. falciparum was conducted at The Art of Discovery, TAD, Bizkaia, Spain, according to the previously described standard assay.[16],[17]

PfFNT = target: T1, PfFNT (Plasmodium falciparum, UniProt O77389); test: Fluorescence cross-correlation spectroscopy (FCCS) competition binding to solubilized PfFNT-GFP
T1 construct: expressed in transfected cells; membranes solubilized
T1 sequence (O77389 1-309): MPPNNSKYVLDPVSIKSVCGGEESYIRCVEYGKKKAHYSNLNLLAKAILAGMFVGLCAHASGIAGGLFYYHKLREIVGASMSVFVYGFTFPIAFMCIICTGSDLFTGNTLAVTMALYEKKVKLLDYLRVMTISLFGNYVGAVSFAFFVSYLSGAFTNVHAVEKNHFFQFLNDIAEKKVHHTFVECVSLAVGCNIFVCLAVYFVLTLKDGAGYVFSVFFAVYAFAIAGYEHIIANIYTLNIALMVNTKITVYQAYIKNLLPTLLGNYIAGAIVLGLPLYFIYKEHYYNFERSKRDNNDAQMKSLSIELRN
How it was run: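 Solubilized membranes from stably transfected cells expressing C-terminally GFP-tagged PfFNT were competed against BH267.meta-DY647 tracer, with competitor titrated from 100 pM to 100 μM. IC50 came from the dual-labeled complex concentration, recorded 10 × 5 s with 488/633 nm excitation; Ki calculated by Cheng-Prusoff from the tracer KD.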

[2] = oral 10 mg kg^–1 day^–1, four consecutive days

SMILES	unbound fraction in plasma (albumin) [%]	albumin binding (albumin) [%]	concentration above which nuclei count (proliferation) starts to decline slightly (HepG2 cells)	concentration above which nuclei count (proliferation) starts to decline slightly (HEK293 cells)	chromatographic logD [1]	activity (reduction of parasitemia relative to untreated) (P. berghei; oral 3 mg kg^–1 day^–1, four consecutive days) [%]	activity (reduction of parasitemia relative to untreated) (P. berghei; [2]) [%]	activity (reduction of parasitemia relative to untreated) (P. berghei; oral 30 mg kg^–1 day^–1, four consecutive days) [%]	Ki (PfFNT) [nM]	activity (parasites cleared) (P. berghei; oral 50 mg kg^–1 day^–1, four consecutive days) [%]
CCCNc1ccc(C(=O)/C=C(\O)C(F)(F)C(F)(F)F)cn1 [7e, 4,4,5,5,5-Pentafluoro-3-hydroxy-1-(6-(propylamino)pyridin-3-yl)pent-2-en-1-one]	1.54	98.46	above 10 μM	above 10 μM	3.18	3.5	15.4	34.2	22 ± 8	–
CC(=O)Nc1ccc(C(=O)/C=C(\O)C(F)(F)C(F)(F)F)cn1 [8a, N-[5-(4,4,5,5,5-Pentafluoro-3-hydroxypent-2-enoyl)pyridin-2-yl]acetamide]	6.31	93.69	above 10 μM	above 10 μM	1.7	–	76.0	–	35 ± 8	99.7
